Read-outs that look alike come from different tables or passages of the source.
Assays:
[1] = tested on: SK-MEL-2 melanoma cells; test: Subcutaneous SK-MEL-2 melanoma xenograft; assay type: in vivo, athymic nu/nu mice; details: ip 8 mg/kg q4dx3, positive control
[2] = tested on: HOP-92; assay type: cell-based, human; details: 10^Δ2-x, relative to compound 2
[3] = tested on: HCT-116; assay type: cell-based, human; details: 10^Δ2-x, relative to compound 2
[4] = tested on: MDA-MB-435; assay type: cell-based, human; details: 10^Δ2-x, relative to compound 2
[5] = tested on: SK-MEL2; assay type: cell-based, human; details: 10^Δ2-x, relative to compound 2
[6] = tested on: MCF7; assay type: cell-based, human; details: 10^Δ2-x, relative to compound 2
[7] = tested on: A549/ATCCC; assay type: cell-based, human; details: 10^Δ2-x, relative to compound 2
[8] = tested on: OVCAR-3; assay type: cell-based, human; details: 10^Δ2-x, relative to compound 2
[9] = tested on: CCRF-CEM; assay type: cell-based, human; details: 10^Δ2-x, relative to compound 2
[10] = tested on: HCT-15; assay type: cell-based, human; details: 10^Δ2-x, relative to compound 2
[11] = tested on: OVCAR-8; assay type: cell-based, human; details: 10^Δ2-x, relative to compound 2
[12] = tested on: HT29; assay type: cell-based, human; details: 10^Δ2-x, relative to compound 2
[13] = tested on: NCI/ADR-RES; test: cells; assay type: cell-based, human; details: 10^Δ2-x, relative to compound 2
[14] = tested on: UACC-62; assay type: cell-based, human; details: 10^Δ2-x, relative to compound 2
[15] = tested on: IGROV1; assay type: cell-based, human; details: 10^Δ2-x, relative to compound 2
[16] = tested on: A498; assay type: cell-based, human; details: 10^Δ2-x, relative to compound 2
[17] = tested on: SF-268; assay type: cell-based, human; details: 10^Δ2-x, relative to compound 2
[18] = tested on: MOLT-4; assay type: cell-based, human; details: 10^Δ2-x, relative to compound 2
[19] = tested on: COLO-205 (colon), A549 (non-small cell lung) and BXCP3 (pancreas); test: cells; assay type: cell-based; details: 72 h, read-out: average GI50 (50% of growth inhibition)
[20] = tested on: 60 cancer cell lines; test: cells; assay type: cell-based, human; details: Homo sapiens
[21] = tested on: SF-295; assay type: cell-based, human; details: 10^Δ2-x, relative to compound 2
[22] = tested on: SN12C; assay type: cell-based, human; details: 10^Δ2-x, relative to compound 2
[23] = tested on: SR; assay type: cell-based, human; details: 10^Δ2-x, relative to compound 2
[24] = tested on: KM12; assay type: cell-based, human; details: 10^Δ2-x, relative to compound 2
[25] = tested on: DU-145; assay type: cell-based, human; details: 10^Δ2-x, relative to compound 2
[26] = tested on: ACHN; assay type: cell-based, human; details: 10^Δ2-x, relative to compound 2
[27] = tested on: panel of 12 tumor cell lines implanted in mice; test: NCI hollow fiber assay; assay type: in vivo; details: for hollow fiber assay total score: 12 tumor cell lines, daily ip for four days
[28] = tested on: MDA-MB-468; assay type: cell-based, human; details: 10^Δ2-x, relative to compound 2
[29] = tested on: U251; assay type: cell-based, human; details: 10^Δ2-x, relative to compound 2
[30] = tested on: SNB-19; assay type: cell-based, human; details: 10^Δ2-x, relative to compound 2
[31] = tested on: HOP-62; assay type: cell-based, human; details: 10^Δ2-x, relative to compound 2
[32] = tested on: HS578T; assay type: cell-based, human; details: 10^Δ2-x, relative to compound 2
[33] = tested on: BT-549; assay type: cell-based, human; details: 10^Δ2-x, relative to compound 2
[34] = tested on: CAKI-1; assay type: cell-based, human; details: 10^Δ2-x, relative to compound 2
[35] = tested on: TK-10; assay type: cell-based, human; details: 10^Δ2-x, relative to compound 2
[36] = tested on: SK-MEL-5; assay type: cell-based, human; details: 10^Δ2-x, relative to compound 2
[37] = tested on: OVCAR-4; assay type: cell-based, human; details: 10^Δ2-x, relative to compound 2
[38] = tested on: MDA-MB-231/ATCC; assay type: cell-based, human; details: 10^Δ2-x, relative to compound 2
[39] = tested on: NCI-H23; assay type: cell-based, human; details: 10^Δ2-x, relative to compound 2
[40] = tested on: NCI-H460; assay type: cell-based, human; details: 10^Δ2-x, relative to compound 2
[41] = tested on: OVCAR-5; assay type: cell-based, human; details: 10^Δ2-x, relative to compound 2
[42] = tested on: SF-539; assay type: cell-based, human; details: 10^Δ2-x, relative to compound 2
[43] = tested on: NCI-H226; assay type: cell-based, human; details: 10^Δ2-x, relative to compound 2
[44] = tested on: K-562; assay type: cell-based, human; details: 10^Δ2-x, relative to compound 2
[45] = tested on: EKVX; assay type: cell-based, human; details: 10^Δ2-x, relative to compound 2
[46] = tested on: HCC-2998; assay type: cell-based, human; details: 10^Δ2-x, relative to compound 2
[47] = tested on: SW-620; assay type: cell-based, human; details: 10^Δ2-x, relative to compound 2
[48] = tested on: PC-3; assay type: cell-based, human; details: 10^Δ2-x, relative to compound 2
[49] = tested on: 786-0; assay type: cell-based, human; details: 10^Δ2-x, relative to compound 2
[50] = tested on: COLO 205; assay type: cell-based, human; details: 10^Δ2-x, relative to compound 2
[51] = tested on: UACC-257; assay type: cell-based, human; details: 10^Δ2-x, relative to compound 2
[52] = tested on: LOX IMVI; assay type: cell-based, human; details: 10^Δ2-x, relative to compound 2
[53] = tested on: T-47D; assay type: cell-based, human; details: 10^Δ2-x, relative to compound 2
[54] = tested on: SNB-75; assay type: cell-based, human; details: 10^Δ2-x, relative to compound 2
[55] = tested on: SK-MEL28; assay type: cell-based, human; details: 10^Δ2-x, relative to compound 2
[56] = tested on: RXF 393; assay type: cell-based, human; details: 10^Δ2-x, relative to compound 2
[57] = tested on: RPMI-8226; assay type: cell-based, human; details: 10^Δ2-x, relative to compound 2
[58] = tested on: M14; assay type: cell-based, human; details: 10^Δ2-x, relative to compound 2
[59] = tested on: NCI-H522; assay type: cell-based, human; details: 10^Δ2-x, relative to compound 2
[60] = tested on: UO-31; assay type: cell-based, human; details: 10^Δ2-x, relative to compound 2
[61] = tested on: HL-60(TB); assay type: cell-based, human; details: 10^Δ2-x, relative to compound 2
[62] = tested on: U251; details: read-out: Average GI50; U251, CNS; ref historical data at the NCI; cited from earlier work
[63] = tested on: MDA-MB-231/ATCC; details: read-out: Average GI50; MDA-MB-231, breast; ref historical data at the NCI; cited from earlier work
[64] = tested on: SF-295; details: read-out: Average GI50; SF-295, CNS; ref historical data at the NCI; cited from earlier work
[65] = tested on: COLO 205; details: read-out: Average GI50; COLO205, colon; ref historical data at the NCI; cited from earlier work
[66] = tested on: OVCAR-8; details: read-out: Average GI50; OVCAR-8, ovarian; ref historical data at the NCI; cited from earlier work
[67] = tested on: IGROV1; details: read-out: Average GI50; IGROV 1, ovarian; ref historical data at the NCI; cited from earlier work
[68] = tested on: A549/ATCCC; details: read-out: Average GI50; A549, NSCL; ref historical data at the NCI; cited from earlier work
[69] = tested on: SK-MEL-5; details: read-out: Average GI50; SK-MEL-5, melanoma; ref historical data at the NCI; cited from earlier work

Compound: COc1cccc2c1C(=O)c1c(O)c3c(c(O)c1C2=O)C[C@@](O)(C(=O)CO)C[C@@H]3O[C@H]1C[C@H](N)[C@H](O)[C@H](C)O1 [doxorubicin, reference compound]
- growth of SK-MEL-2 human melanoma xenografts [1]: markedly delayed

Compound: CO[C@H](C(=O)C(C)=O)[C@@H]1Cc2cc3cc(O[C@H]4C[C@@H](O[C@H]5C[C@@H](O)[C@H](O)[C@@H](C)O5)[C@H](O)[C@@H](C)O4)c(C)c(O)c3c(O)c2C(=O)[C@H]1O[C@H]1C[C@@H](O[C@H]2C[C@@H](O[C@H]3C[C@H](O)[C@H](O)[C@@H](C)O3)[C@H](O)[C@@H](C)O2)[C@H](O)[C@@H](C)O1 [Compound 11, demycarosyl-3D-β-D-digitoxosyl-mithramycin SDK]
- activity improvement factor [2]: 1.50
- activity improvement factor [3]: 1.30
- activity improvement factor [4]: 1.70
- activity improvement factor [5]: 2.24
- activity improvement factor [6]: 0.65
- activity improvement factor [7]: 1.68
- activity improvement factor [8]: 3.43
- activity improvement factor [9]: 1.16
- activity improvement factor [10]: 5.82
- activity improvement factor [11]: 2.11
- activity improvement factor [12]: 3.13
- activity improvement factor [13]: 4.68
- activity improvement factor [14]: 0.91
- activity improvement factor [15]: 3.24
- activity improvement factor [16]: 0.68
- activity improvement factor [17]: 1.66
- activity improvement factor [18]: 1.76
- GI50 [19]: 300 to 1300 nM
- GI50 ([20]; read-out: Mean GI50): 28 nM
- GI50 ([20]; read-out: Mean log(GI50) (converted)): 28.2 nM
- activity improvement factor [21]: 2.32
- activity improvement factor [22]: 1.45
- activity improvement factor [23]: 1.22
- activity improvement factor [24]: 2.32
- activity improvement factor [25]: 3.63
- activity improvement factor [26]: 2.09
- hollow fiber assay total score [27]: 48/96
- activity improvement factor [28]: 2.14
- activity improvement factor [29]: 1.35
- activity improvement factor [30]: 2.57
- activity improvement factor [31]: 3.39
- activity improvement factor [32]: 1.76
- activity improvement factor [33]: 1.26
- activity improvement factor [34]: 1.82
- activity improvement factor [35]: 1.50
- activity improvement factor [36]: 1.24
- activity improvement factor [37]: 2.88
- activity improvement factor [38]: 2.00
- activity improvement factor [39]: 2.79
- activity improvement factor [40]: 1.19
- activity improvement factor [41]: 2.57
- activity improvement factor [42]: 1.58
- activity improvement factor [43]: 1.32
- activity improvement factor [44]: 1.26
- activity improvement factor [45]: 1.48
- activity improvement factor [46]: 4.79
- activity improvement factor [47]: 1.22
- activity improvement factor [48]: 4.37
- activity improvement factor [49]: 2.43
- activity improvement factor [50]: 1.60
- activity improvement factor [51]: 1.17
- activity improvement factor [52]: 1.51
- activity improvement factor [53]: 1.32
- activity improvement factor [54]: 2.75
- activity improvement factor [55]: 1.30
- activity improvement factor [56]: 1.91
- activity improvement factor [57]: 0.75
- activity improvement factor [58]: 2.75
- activity improvement factor [59]: 0.70
- activity improvement factor [60]: 1.30
- activity improvement factor [61]: 3.09

Compound: CO[C@H](C(=O)[C@@H](O)[C@@H](C)O)[C@@H]1Cc2cc3cc(O[C@H]4C[C@@H](O[C@H]5C[C@@H](O)[C@H](O)[C@@H](C)O5)[C@H](O)[C@@H](C)O4)c(C)c(O)c3c(O)c2C(=O)[C@H]1O[C@H]1C[C@@H](O[C@H]2C[C@@H](O[C@H]3C[C@H](O)[C@H](O)[C@@H](C)O3)[C@H](O)[C@@H](C)O2)[C@H](O)[C@@H](C)O1 [Compound 2, demycarosyl-3D-β-D-digitoxosyl-mithramycin, reference compound]
- GI50 ([20]; read-out: Mean GI50): 51 nM

Compound: mithramycin [Compound 1]
- GI50 [62]: 63 nM
- GI50 [63]: 166 nM
- GI50 [64]: 79 nM
- hollow fiber assay total score [27]: 58/96
- hollow fiber assay intraperitoneal score ([27]; intraperitoneal implants): 34/48
- hollow fiber assay subcutaneous score ([27]; subcutaneous implants): 24/48
- GI50 [65]: 63 nM
- GI50 [66]: 79 nM
- GI50 [67]: 158 nM
- GI50 [68]: 79 nM
- GI50 [69]: 63 nM

— article PMC3395220 (Journal of Medicinal Chemistry, 2012)
